Measurements from patent US10519211B2, “Compounds as peptidic GLP1/glucagon/GIP receptor agonists” (SANOFI, priority 2016, dated 2019).
Numbered stars: 1 amine (or outer) side, 2 acyl side, 3 side chain; on linkers, the order of the positions; unused ones are H or OH. Square brackets hold non-standard residues; d marks the D form. Side chains are listed from the residue outwards. Peptide text beside a SMILES is read from it. * marks the point of attachment. γGlu = O=C(O)[C@H](CCC(=O)[*:2])N[*:1]; Stearoyl = CCCCCCCCCCCCCCCCCC(=O)*; Palmitoyl = CCCCCCCCCCCCCCCC(=O)*; AEEA = NCCOCCOCC(=O)O; Aib = CC(C)(N)C(=O)O

Tests used:
[1] = Dynamic light scattering (DLS), hydrodynamic radius as surrogate for interaction parameter kD; assay type: physicochemical; conditions: for Delta Rh [nm] = Rh5 − Rh1: DLS buffer system A pH 4.5; for Rh1 [nm] c= 1 mg/ml / Rh5 [nm] c = 5 mg/ml: hydrodynamic radius, DLS buffer system A pH 4.5, DLS method C, 25° C.
Experimental: For every peptide solution, the hydrodynamic radius Rh and the diffusion constant D (related via the Stokes-Einstein equation) were determined as an average over triplicates. Both parameters were determined at different concentrations (e.g., Rh1 and D1: 1 mg/ml and Rh5 and D5: 5 mg/ml) in the same buffer system. The difference of these parameters between low and high peptide concentration is a surrogate for the DLS interaction parameter kD. Rh5<Rh1 or D5>D1 correspond to kD>0 and therefore to repulsive inter-particle interactions that result in improved physical (or colloidal) stability.
DLS buffer system A) 25 mM acetate buffer pH4.5, 3 mg/mL L-Methionine, 2.7 mg/mL m-cresol, 18 mg/mL Glycerol 85%
DLS Method C: DLS measurements were performed on a DynaPro Plate Reader II (Wyatt Technology, Santa Barbara, Calif., US) and using one of the following black, low volume, and non-treated plates: polystyrene 384 assay plate with clear bottom (Corning, N.Y., US), polystyrene 96 assay plate with clear bottom (Corning, N.Y., US), cyclo olefin polymer (COP) 384 assay plate with clear bottom (Aurora, Mont., US), or polystyrene 384 assay plate with clear bottom (Greiner Bio-One, Germany). The data were processed with the Dynamics software provided by Wyatt Technology. Parameters of the particle size distribution were determined with non-negatively constrained least squares (NNLS) methods using DynaLS algorithms. Measurements were taken at 25° C. with an 830 nm laser light source at an angle of 158°.
The hydrodynamic radius radius Rh of peptide samples was determined at different peptide concentrations (1 mg/ml and 5 mg/ml) in DLS buffer system A using DLS method C as described in Methods as surrogate for the DLS interaction parameter kD.

[2] = Chemical stability assessment (UPLC-UV, relative purity loss); assay type: physicochemical; conditions: 1 mg/ml, 25 mM acetate buffer pH 4.5 with m-cresol (buffer system A)
Summary of the method: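 Peptide at 1 mg/mL (purity-corrected) in 25 mM acetate pH 4.5 with methionine, m-cresol and glycerol, sterile-filtered, stored 28 days at 40° C. Purity measured by UPLC-UV as peptide peak area fraction at start and after storage; value is relative percent purity loss.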

[3] = biological target: T1, human GLP-1 receptor (hGLP-1 R) (Homo sapiens, UniProt P43220); assay: cAMP response (HTRF) of HEK-293 cells stably expressing human GLP-1 receptor; assay type: cell-based; conditions: Table 8; cAMP formation
T1 construct: expressed in transfected cells; host or cells: HEK-293
Experimental: (§1) cAMP content of cells was determined using a kit from Cisbio Corp. (cat. no. 62AM4PEJ) based on HTRF (Homogenous Time Resolved Fluorescence). For preparation, cells were split into T175 culture flasks and grown overnight to near confluency in medium (DMEM/10% FBS). Medium was then removed and cells washed with PBS lacking calcium and magnesium, followed by proteinase treatment with accutase (Sigma-Aldrich cat. no. A6964). Detached cells were washed and resuspended in assay buffer (1×HBSS; 20 mM HEPES, 0.1% BSA, 2 mM IBMX) and cellular density determined. They were then diluted to 400000 cells/ml and 25 μl-aliquots dispensed into the wells of 96-well plates. For measurement, 25 μl of test compound in assay buffer was added to the wells, followed by incubation for 30 minutes at room temperature.
(§2) Potencies of peptidic compounds at the GLP-1, glucagon and GIP receptors were determined by exposing cells expressing human glucagon receptor (hGlucagon R), human GIP receptor (hGIP-R) or human GLP-1 receptor (hGLP-1 R) to the listed compounds at increasing concentrations and measuring the formed cAMP as described in Methods.

[4] = Solubility assessment (UPLC-UV); assay type: physicochemical; conditions: acetate buffer pH 4.5, 2.7 mg/ml m-cresol (buffer system A), target 10 mg/ml
Summary of the method: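 Peptides at 10 mg/mL (purity-corrected, by UPLC/MS) in 100 mM acetate buffer pH 4.5 with 2.7 mg/ml m-Cresol, gently agitated 1 hour, then centrifuged 15 min at 2500 RCF. Supernatant, diluted 1:10, quantified by UPLC-UV peak area against a reference peptide standard curve, extinction-coefficient corrected.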

[5] = biological target: T2, human glucagon receptor (hGlucagon R) (Homo sapiens, UniProt P47871); assay: cAMP response (HTRF) of HEK-293 cells stably expressing human glucagon receptor; assay type: cell-based; conditions: Table 8; cAMP formation
T2 construct: expressed in transfected cells; host or cells: HEK-293
Experimental: as §1, §2

[6] = Thioflavin T (ThT) assay for physical stability (fibrillation); assay type: physicochemical; conditions: 3 mg/ml, 100 mM acetate pH 4.5 with m-cresol, shaking at 37° C.
Summary of the method: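 Peptide at 3 mg/ml with 100 μM ThT in 100 mM acetate pH 4.5 with m-cresol, stressed at 37° C by cycles of 10 s shaking at 960 rpm and 50 s rest. Fluorescence read every 20 minutes, eight replicates; lag time in hours.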

T1 sequence (P43220 24-463): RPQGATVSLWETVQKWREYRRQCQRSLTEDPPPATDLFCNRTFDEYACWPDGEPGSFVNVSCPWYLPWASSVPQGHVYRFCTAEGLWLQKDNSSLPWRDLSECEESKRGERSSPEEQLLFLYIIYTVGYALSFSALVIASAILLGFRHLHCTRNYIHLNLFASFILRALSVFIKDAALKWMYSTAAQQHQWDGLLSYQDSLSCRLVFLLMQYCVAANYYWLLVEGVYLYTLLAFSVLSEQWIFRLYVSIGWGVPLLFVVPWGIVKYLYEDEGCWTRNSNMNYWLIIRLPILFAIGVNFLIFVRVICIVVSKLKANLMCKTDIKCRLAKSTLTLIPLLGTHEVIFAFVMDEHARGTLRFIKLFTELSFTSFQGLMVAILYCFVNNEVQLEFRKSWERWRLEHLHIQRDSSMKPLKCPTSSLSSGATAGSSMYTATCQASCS
T2 sequence (P47871 26-477): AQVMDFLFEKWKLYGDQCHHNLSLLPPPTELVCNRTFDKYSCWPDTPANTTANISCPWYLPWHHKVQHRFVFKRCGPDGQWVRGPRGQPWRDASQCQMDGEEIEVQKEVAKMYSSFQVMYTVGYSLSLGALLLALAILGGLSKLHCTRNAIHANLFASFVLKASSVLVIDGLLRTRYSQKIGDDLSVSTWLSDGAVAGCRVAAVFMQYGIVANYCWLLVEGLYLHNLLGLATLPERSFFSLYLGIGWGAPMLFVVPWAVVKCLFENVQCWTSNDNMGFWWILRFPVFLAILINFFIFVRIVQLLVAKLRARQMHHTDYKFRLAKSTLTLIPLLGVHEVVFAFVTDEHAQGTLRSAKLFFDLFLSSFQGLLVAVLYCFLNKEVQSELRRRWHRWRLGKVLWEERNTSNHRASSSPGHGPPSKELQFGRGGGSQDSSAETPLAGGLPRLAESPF

Row | Delta Rh [nm] = Rh5 − Rh1 [1] [nm] | Rh1 [nm] c= 1 mg/ml [1] [nm] | Rh5 [nm] c = 5 mg/ml [1] [nm] | Chemical stability [relative purity loss 28 days 40° C.] (%) at pH 4.5 [2] [%] | EC50 [3] [nM] | solubility at 1 h [4] [µg/mL] | EC50 [5] [nM] | Lag time before increase [6] [h] | SMILES
1 | −0.2 | 2.7 | 2.4 | 5.5 | 0.0057 | > 9300 | – | – | CCCCCCCCCCCCCCCC(=O)N[C@@H](CCC(=O)NCCCC[C@H](NC(=O)[C@H](CC(C)C)NC(=O)[C@H](CCCCN)NC(=O)[C@H](CO)NC(=O)[C@H](CC(C)C)NC(=O)[C@H](CC(=O)O)NC(=O)[C@H](CO)NC(=O)[C@@H](NC(=O)[C@H](Cc1ccccc1)NC(=O)[C@@H](NC(=O)CNC(=O)[C@H](CCC(N)=O)NC(=O)C(C)(C)NC(=O)[C@@H](N)Cc1c[nH]cn1)[C@@H](C)O)[C@@H](C)O)C(=O)N[C@@H](CCC(=O)O)C(=O)N[C@@H](CCCCN)C(=O)N[C@@H](CCC(N)=O)C(=O)N[C@@H](CCCNC(=N)N)C(=O)N[C@@H](CCC(N)=O)C(=O)NC(C)(C)C(=O)N[C@@H](CCC(=O)O)C(=O)N[C@@H](Cc1ccccc1)C(=O)N[C@H](C(=O)N[C@@H](CCC(=O)O)C(=O)N[C@@H](Cc1c[nH]c2ccccc12)C(=O)N[C@@H](CC(C)C)C(=O)N[C@@H](CCCCN)C(=O)N[C@@H](C)C(=O)NCC(=O)NCC(=O)N1CCC[C@H]1C(=O)N1CCC[C@H]1C(=O)N[C@@H](CO)C(=O)NC(C)(C)C(=O)N[C@@H](CCCCN)C(=O)N1CCC[C@H]1C(=O)N1CCC[C@H]1C(=O)N1CCC[C@H]1C(=O)N[C@@H](CCCCN)C(N)=O)[C@@H](C)CC)C(=O)O [SEQ ID NO: 14, H-Aib-Q-G-T-F-T-S-D-L-S-K-L-K[gGlu-Palm]-E-K-Q-R-Q-Aib-E-F-I-E-W-L-K-A-G-G-P-P-S-Aib-K-P-P-P-K-NH2]
2 | −0.2 | 2.7 | 2.6 | 5.6 | 0.0057 | > 8900 | – | – | CCCCCCCCCCCCCCCCCC(=O)N[C@@H](CCC(=O)NCCCC[C@H](NC(=O)[C@H](CC(C)C)NC(=O)[C@H](CCCCN)NC(=O)[C@H](CO)NC(=O)[C@H](CC(C)C)NC(=O)[C@H](CC(=O)O)NC(=O)[C@H](CO)NC(=O)[C@@H](NC(=O)[C@H](Cc1ccccc1)NC(=O)[C@@H](NC(=O)CNC(=O)[C@H](CCC(N)=O)NC(=O)C(C)(C)NC(=O)[C@@H](N)Cc1c[nH]cn1)[C@@H](C)O)[C@@H](C)O)C(=O)N[C@@H](CCC(=O)O)C(=O)N[C@@H](CCCCN)C(=O)N[C@@H](CCC(N)=O)C(=O)N[C@@H](CCCNC(=N)N)C(=O)N[C@@H](CCC(N)=O)C(=O)NC(C)(C)C(=O)N[C@@H](CCC(=O)O)C(=O)N[C@@H](Cc1ccccc1)C(=O)N[C@H](C(=O)N[C@@H](CCC(=O)O)C(=O)N[C@@H](Cc1c[nH]c2ccccc12)C(=O)N[C@@H](CC(C)C)C(=O)N[C@@H](CCCCN)C(=O)N[C@@H](C)C(=O)NCC(=O)NCC(=O)N1CCC[C@H]1C(=O)N1CCC[C@H]1C(=O)N[C@@H](CO)C(=O)NC(C)(C)C(=O)N[C@@H](CCCCN)C(=O)N1CCC[C@H]1C(=O)N1CCC[C@H]1C(=O)N1CCC[C@H]1C(=O)N[C@@H](CCCCN)C(N)=O)[C@@H](C)CC)C(=O)O [SEQ ID NO: 15, H-Aib-Q-G-T-F-T-S-D-L-S-K-L-K[gGlu-Stea]-E-K-Q-R-Q-Aib-E-F-I-E-W-L-K-A-G-G-P-P-S-Aib-K-P-P-P-K-NH2] (H-H[Aib]QGTFTSDLSKLK([γGlu-Stearoyl])EKQRQ[Aib]EFIEWLKAGGPPS[Aib]KPPPK-NH2)
3 | – | – | – | 5.4 | – | > 9300 | 0.022 | >45 | CCCCCCCCCCCCCCCC(=O)N[C@@H](CCC(=O)N[C@@H](CCC(=O)NCCCC[C@H](NC(=O)[C@H](CC(C)C)NC(=O)[C@H](CCCCN)NC(=O)[C@H](CO)NC(=O)[C@H](CC(C)C)NC(=O)[C@H](CC(=O)O)NC(=O)[C@H](CO)NC(=O)[C@@H](NC(=O)[C@H](Cc1ccccc1)NC(=O)[C@@H](NC(=O)CNC(=O)[C@H](CCC(N)=O)NC(=O)C(C)(C)NC(=O)[C@@H](N)Cc1c[nH]cn1)[C@@H](C)O)[C@@H](C)O)C(=O)N[C@@H](CCC(=O)O)C(=O)N[C@@H](CCCCN)C(=O)N[C@@H](CCC(N)=O)C(=O)N[C@@H](CCCNC(=N)N)C(=O)N[C@@H](CCC(N)=O)C(=O)NC(C)(C)C(=O)N[C@@H](CCC(=O)O)C(=O)N[C@@H](Cc1ccccc1)C(=O)N[C@H](C(=O)N[C@@H](CCC(=O)O)C(=O)N[C@@H](Cc1c[nH]c2ccccc12)C(=O)N[C@@H](CC(C)C)C(=O)N[C@@H](CCCCN)C(=O)N[C@@H](C)C(=O)NCC(=O)NCC(=O)N[C@@H](Cc1c[nH]cn1)C(=O)N1CCC[C@H]1C(=O)N[C@@H](CO)C(=O)NC(C)(C)C(=O)N[C@@H](CCCCN)C(=O)N1CCC[C@H]1C(=O)N1CCC[C@H]1C(=O)N1CCC[C@H]1C(=O)N[C@@H](CCCCN)C(N)=O)[C@@H](C)CC)C(=O)O)C(=O)O [SEQ ID NO: 12, H-Aib-Q-G-T-F-T-S-D-L-S-K-L-K[gGlu-gGlu-Palm]-E-K-Q-R-Q-Aib-E-F-I-E-W-L-K-A-G-G-H-P-S-Aib-K-P-P-P-K-NH2]
4 | −0.5 | 2.9 | 2.4 | 6.4 | – | > 9200 | 0.022 | >45 | CCCCCCCCCCCCCCCC(=O)NCCOCCOCC(=O)N[C@@H](CCC(=O)N[C@@H](CCC(=O)NCCCC[C@H](NC(=O)[C@H](CC(C)C)NC(=O)[C@H](CCCCN)NC(=O)[C@H](CO)NC(=O)[C@H](CC(C)C)NC(=O)[C@H](CC(=O)O)NC(=O)[C@H](CO)NC(=O)[C@@H](NC(=O)[C@H](Cc1ccccc1)NC(=O)[C@@H](NC(=O)CNC(=O)[C@H](CCC(N)=O)NC(=O)C(C)(C)NC(=O)[C@@H](N)Cc1c[nH]cn1)[C@@H](C)O)[C@@H](C)O)C(=O)N[C@@H](CCC(=O)O)C(=O)N[C@@H](CCCCN)C(=O)N[C@@H](CCC(N)=O)C(=O)N[C@@H](CCCNC(=N)N)C(=O)N[C@@H](CCC(N)=O)C(=O)NC(C)(C)C(=O)N[C@@H](CCC(=O)O)C(=O)N[C@@H](Cc1ccccc1)C(=O)N[C@H](C(=O)N[C@@H](CCC(=O)O)C(=O)N[C@@H](Cc1c[nH]c2ccccc12)C(=O)N[C@@H](CC(C)C)C(=O)N[C@@H](CCCCN)C(=O)N[C@@H](C)C(=O)N[C@H](C)C(=O)NCC(=O)N[C@@H](Cc1c[nH]cn1)C(=O)N1CCC[C@H]1C(=O)N[C@@H](CO)C(=O)NC(C)(C)C(=O)N[C@@H](CCCCN)C(=O)N1CCC[C@H]1C(=O)N1CCC[C@H]1C(=O)N1CCC[C@H]1C(=O)N[C@@H](CCCCN)C(N)=O)[C@@H](C)CC)C(=O)O)C(=O)O [SEQ ID NO: 17, H-Aib-Q-G-T-F-T-S-D-L-S-K-L-K[gGlu-gGlu-AEEA-Palm]-E-K-Q-R-Q-Aib-E-F-I-E-W-L-K-A-dAla-G-H-P-S-Aib-K-P-P-P-K-NH2] (H-H[Aib]QGTFTSDLSKLK([γGlu-γGlu-AEEA-Palmitoyl])EKQRQ[Aib]EFIEWLKA[dA]GHPS[Aib]KPPPK-NH2)
